Here are results for three molecules from ChEMBL document CHEMBL2434909, “In vitro antimalarial activity, β-haematin inhibition and structure-activity relationships in a series of quinoline triazoles” (Eur J Med Chem, 2013).

Series [1] in a line: Inhibition of NP-40-induced beta-haematin formation after 5 to 6 hrs hrs by UV-vis spectroscopic analysis. It is filed as physicochemical.
For a further series, the system named is CHO. The series can be described thus: Cytotoxicity against CHO cells by MTT assay. It is filed as cell-based. The settings on record: Cricetulus griseus.

SMILES strings stand for the structures. pIC50: −log10 of the molar value.

In general, pIC50 refers to −log10 of the IC50, conventionally taken in molar units. A low value points to a large IC50. Take `CCN(CC)Cc1cc(Nc2ccnc3cc(Cl)ccc23)ccc1O`: the pIC50 in series [1] is 5.17.

On to `CC[C@H]1CN2CCc3cc(OC)c(OC)cc3[C@@H]2C[C@@H]1C[C@H]1NCCc2cc(OC)c(OC)cc21` [EMETINE], for which the pIC50 with CHO was 7.39.

Molecule `CCN(CC)CCCC(C)Nc1ccnc2cc(Cl)ccc12` (stereo not drawn) [CHLOROQUINE] had a pIC50 in series [1] of 4.74.
